What was measured:
Type in all cases: biochemical
caspase-1 = molecular target: T1, caspase-1 (Homo sapiens, UniProt P29466, D381E); assay: Caspase-1 progress curve assay; settings: D381E variant, substrate Ac-YVAD-AMC, 30° C.
T1 construct: His tag (N); made in house; host or cells: E. coli
T1 sequence (P29466 120-297 limits assumed): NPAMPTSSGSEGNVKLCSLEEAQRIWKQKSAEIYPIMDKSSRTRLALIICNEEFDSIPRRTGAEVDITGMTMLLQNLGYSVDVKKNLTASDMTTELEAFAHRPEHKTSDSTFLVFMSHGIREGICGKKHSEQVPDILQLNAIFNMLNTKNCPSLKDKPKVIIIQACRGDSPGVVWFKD
T1 sequence (P29466 317-404 D381E limits assumed): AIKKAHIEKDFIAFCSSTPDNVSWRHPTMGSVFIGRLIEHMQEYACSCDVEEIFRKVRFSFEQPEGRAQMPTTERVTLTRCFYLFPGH
Procedure, shortened: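 Autolysis-resistant D381E caspase-1 (E. coli, N-His tag), about 2 nM, added with 15 μM Ac-YVAD-AMC in HEPES/glycerol/EDTA buffer with 5 mM DTT to prewarmed compound at 30 °C. AMC fluorescence followed 900 s, triplicate curves fit to irreversible inactivation; kon (M^−1s^−1) from regression slope.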

caspase-3 = molecular target: T2, caspase-3 (Homo sapiens, UniProt P42574); assay: Caspase-3 progress curve assay; settings: substrate Z-DEVD-AFC; NI = no inhibition
T2 construct: made in house; host or cells: E. coli
T2 sequence (P42574 29-175 limits assumed): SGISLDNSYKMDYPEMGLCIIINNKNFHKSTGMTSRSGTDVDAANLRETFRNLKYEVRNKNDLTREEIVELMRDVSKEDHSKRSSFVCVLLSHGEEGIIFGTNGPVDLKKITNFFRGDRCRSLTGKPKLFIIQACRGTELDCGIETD
T2 sequence (P42574 176-277 limits assumed): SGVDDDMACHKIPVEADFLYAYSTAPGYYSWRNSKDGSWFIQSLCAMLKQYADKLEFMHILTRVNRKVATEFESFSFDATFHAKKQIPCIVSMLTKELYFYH
Procedure, shortened: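 E. coli-expressed caspases, pre-activated 10 min at 37° C with 10 mM DTT, were added to 100 μM Z-DEVD-AFC plus inhibitor in 50 mM Hepes, 100 mM NaCl, 0.1% CHAPS, 10% sucrose, 10 mM DTT, pH 7.4. AFC fluorescence (ex 400/em 505 nm) was followed; inhibition rates and equilibria came from progress curves.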

caspase-6 = molecular target: T3, caspase-6 (Homo sapiens, UniProt P55212); assay: Caspase-6 progress curve assay; settings: Table V, substrate Z-DEVD-AFC
T3 construct: made in house; host or cells: E. coli
T3 sequence (P55212 24-179 limits assumed): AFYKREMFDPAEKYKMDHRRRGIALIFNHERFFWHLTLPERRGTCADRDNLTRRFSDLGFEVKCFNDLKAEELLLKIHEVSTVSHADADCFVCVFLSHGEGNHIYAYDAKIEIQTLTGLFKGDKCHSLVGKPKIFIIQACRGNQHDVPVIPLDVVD
T3 sequence (P55212 194-293 limits assumed): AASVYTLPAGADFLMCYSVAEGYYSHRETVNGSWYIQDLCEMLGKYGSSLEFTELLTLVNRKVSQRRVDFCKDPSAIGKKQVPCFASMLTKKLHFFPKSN
Method: Caspase-3, -6, and -8. Caspase-3, -6 and -8 were expressed in E. coli and purified according to methods previously described by Stennicke and Salvesen. Assays using the fluorogenic substrate Z-DEVD-AFC (λex=400 nm, λem=505 nm) were carried out on a Molecular Devices fMax fluorescence microplate reader. Inhibition rates and equilibria were determined by the progress curve method. The standard 100 μL reaction was started by adding enzyme to a mixture of substrate (final concentration of Z-DEVD-AFC 100 μM) and various amounts of inhibitor in buffer (50 mM Hepes, 100 mM NaCl, 0.1% (w/v) CHAPS, sucrose 10% (w/v), and 10 mM DTT, at pH 7.4). The caspases were pre-activated for 10 min at 37° C. in the presence of 10 mM DTT.

papain = molecular target: T4, papain (Carica papaya, UniProt P00784); assay: Inhibition of papain, incubation method; settings: second-order rate constant, NI = no inhibition; for kinact/KI: pH 7.5, read-out: kobs/[I] papain
T4 sequence (P00784 134-345): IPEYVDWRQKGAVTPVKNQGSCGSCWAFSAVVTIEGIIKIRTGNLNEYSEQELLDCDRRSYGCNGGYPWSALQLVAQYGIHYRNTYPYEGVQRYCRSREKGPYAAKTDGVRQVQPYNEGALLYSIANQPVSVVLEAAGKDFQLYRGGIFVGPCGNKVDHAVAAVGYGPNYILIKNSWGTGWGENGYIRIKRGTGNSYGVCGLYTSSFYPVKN
Method: (§1) The release of 7-amino-4-methylcoumarin was monitored (λex=360 nm, λem=465 nm) using a Tecan Spectra Fluor microplate reader. Pseudo first-order inactivation rate constants were obtained from plots of In vt/vo versus time.
The incubation method was also used for papain. The inhibition incubation buffer for papain was 50 mM Hepes buffer at pH 7.5, containing 2.5 mM DTT and 2.5 mM EDTA. The assay used the substrate Z-Phe-Arg-pNA (53.7 μM) in the same buffer. The approximate concentration of papain added to the incubation buffer was 0.29 mg/mL. The release of p-nitroanilide was monitored at 405 nm with a Molecular Devices Thermomax microplate reader.

cathepsin B = cathepsin B (Homo sapiens, UniProt P07858); assay: Inhibition of cathepsin B, incubation method; settings: second-order rate constant, NI = no inhibition; for kinact/KI: pH 6, read-out: kobs/[I] cathepsin B
Excerpt: as §1

calpain = assay: Inhibition of calpain; settings: second-order rate constant; NI = no inhibition

SMILES | k2 caspase-3 (caspase-3) [M⁻¹ s⁻¹] | k2 caspase-6 (caspase-6) [M⁻¹ s⁻¹] | kobs/[I] calpain (calpain) [M⁻¹ s⁻¹] | also measured
CC(C)[C@H](NC(=O)CCc1ccccc1)C(=O)N[C@@H](C)C(=O)NN(CC(=O)O)C(=O)[C@H]1O[C@@H]1C(=O)N(Cc1ccccc1)Cc1ccccc1 [10-127, (2S,3S)-2-(Dibenzylcarbamoyl)-3-(N^2-(3-phenylpropanoylvalylalanyl)-N^1-carboxymethylhydrazinocarbonyl)oxirane] | 830 ± 40 | 145 ± 1 | – | k2 caspase-1 (caspase-1): 101140 ± 9547 M⁻¹ s⁻¹
CC(C)C[C@H](NC(=O)OCc1ccccc1)C(=O)N[C@@H](CCC(=O)O)C(=O)N[C@H](C(=O)NN(CC(=O)O)C(=O)[C@H]1O[C@@H]1C(=O)N(C)Cc1ccccc1)[C@@H](C)O [11-16, (2S,3S)-2-(N-Methyl-N-benzylcarbamoyl)-3-(N^2-(N-benzyloxycarbonylleucylglutamylthreonyl)-N^1-carboxymethylhydrazinocarbonyl)oxirane] | 2640 ± 100 | 9680 ± 875 | – | –
CC(C)[C@H](NC(=O)CCc1ccccc1)C(=O)N[C@@H](C)C(=O)NN(CC(=O)O)C(=O)[C@H]1O[C@@H]1C(=O)N(C)Cc1ccccc1 [11-17, (2S,3S)-2-(N-Methyl-N-benzylcarbamoyl)-3-(N^2-(3-phenylpropanoylvalylalanyl)-N^1-carboxymethylhydrazinocarbonyl)oxirane] | 1950 ± 150 | 136 | – | –
CCOC(=O)[C@H]1O[C@@H]1C(=O)N(CC(C)C)NC(=O)C(CC(C)C)NC(=O)OCc1ccccc1 (stereo partly drawn) [Cbz-Leu-ALeu-(2S, 3S)-EP-COOEt, (2S,3S)-3-(N^2-(N-Benzyloxycarbonyleucyl)-N^1-isobutylhydrazinocarbonyl)oxirane-2-carboxylic Acid Ethyl Ester] | – | – | 8.58 | kobs/[I] papain (papain): 10.53 M⁻¹ s⁻¹; kobs/[I] cathepsin B (cathepsin B): 1.8 M⁻¹ s⁻¹
CCOC(=O)[C@@H]1O[C@@H]1C(=O)N(CC(C)C)NC(=O)C(CC(C)C)NC(=O)OCc1ccccc1 (relative stereo) [Cbz-Leu-ALeu-cis-EP-COOEt, cis-3-(N^2-(N-Benzyloxycarbonyleucyl)-N^1-isobutylhydrazinocarbonyl)oxirane-2-carboxylic Acid Ethyl Ester] | – | – | 1.88 | kobs/[I] papain (papain): 0.38 M⁻¹ s⁻¹; kobs/[I] cathepsin B (cathepsin B): 6.27 M⁻¹ s⁻¹
CCCCN(CCCC)C(=O)[C@H]1O[C@@H]1C(=O)N(CC(=O)O)NC(=O)[C@H](C)NC(=O)[C@@H](NC(=O)CCc1ccccc1)C(C)C [10-129, (2S,3S)-2-(Dibutylcarbamoyl)-3-(N^2-(3-phenylpropanoylvalylalanyl)-N^1-carboxymethylhydrazinocarbonyl)oxirane] | 520 ± 10 | 53 ± 9 | – | k2 caspase-1 (caspase-1): 26150 ± 5460 M⁻¹ s⁻¹
CC[C@H](C)[C@H](NC(=O)OCc1ccccc1)C(=O)N[C@@H](CCC(=O)O)C(=O)N[C@H](C(=O)NN(CC(=O)O)C(=O)[C@H]1O[C@@H]1C(=O)N(C)Cc1ccccc1)[C@@H](C)O [11-18, (2S,3S)-2-(N-Methyl-N-benzylcarbamoyl)-3-(N^2-(N-benzyloxycarbonylisoleucylglutamylthreonyl)-N^1-carboxymethylhydrazinocarbonyl)oxirane] | 4780 | 47730 ± 420 | – | –
CCOC(=O)[C@H]1O[C@@H]1C(=O)N(CCc1ccccc1)NC(=O)C(CC(C)C)NC(=O)OCc1ccccc1 (stereo partly drawn) [Cbz-Leu-AHph-(2S, 3S)-EP-COOEt, (2S,3S)-3-(N^2-(N-Benzyloxycarbonyleucyl)-N^1-phenylethylhydrazinocarbonyl)oxirane-2-carboxylic Acid Ethyl Ester] | – | – | 2.28 | kobs/[I] papain (papain): 5.68 M⁻¹ s⁻¹; kobs/[I] cathepsin B (cathepsin B): 0.67 M⁻¹ s⁻¹
CCOC(=O)[C@@H]1O[C@H]1C(=O)N(CC(C)C)NC(=O)OCc1ccccc1 (relative stereo) [Cbz-ALeu-trans-EP-COOEt, trans-3-(N^2-(N-Benzyloxycarbonyl)-N^1-isobutylhydrazinocarbonyl)oxirane-2-carboxylic Acid Ethyl Ester] | – | – | 1.75 | kobs/[I] papain (papain): 16.1 M⁻¹ s⁻¹; kobs/[I] cathepsin B (cathepsin B): 4.43 M⁻¹ s⁻¹
CC[C@H](C)[C@H](NC(=O)OCc1ccccc1)C(=O)N[C@@H](CCC(=O)O)C(=O)N[C@H](C(=O)NN(CC(=O)O)C(=O)[C@H]1O[C@@H]1C(=O)N(Cc1ccccc1)Cc1ccccc1)[C@@H](C)O [11-11, (2S,3S)-2-(Dibenzylcarbamoyl)-3-(N^2-(N-benzyloxycarbonylisoleucylglutamylthreonyl)-N^1-carboxymethylhydrazinocarbonyl)oxirane] | 3550 | 32000 ± 1680 | – | –
CC(C)C[C@H](NC(=O)OCc1ccccc1)C(=O)N[C@@H](CCC(=O)O)C(=O)N[C@H](C(=O)NN(CC(=O)O)C(=O)[C@H]1O[C@@H]1C(=O)N(Cc1ccccc1)Cc1ccccc1)[C@@H](C)O [11-4, (2S,3S)-2-(Dibenzylcarbamoyl)-3-(N^2-(N-benzyloxycarbonylleucylglutamylthreonyl)-N^1-carboxymethylhydrazinocarbonyl)oxirane] | 2750 ± 205 | 13840 ± 270 | – | –
CCOC(=O)[C@@H]1O[C@H]1C(=O)N(CCc1ccccc1)NC(=O)[C@H](CC(C)C)NC(C)=O (relative stereo) [Ac-Leu-AHph-trans-EP-COOEt, trans-3-(N^2-(N-Acetylleucyl)-N^1-phenylethylhydrazinocarbonyl)oxirane-2-carboxylic Acid Ethyl Ester] | – | – | 0.84 | kinact/KI (papain): 1.9 M⁻¹ s⁻¹; kinact/KI (cathepsin B): 0.59 M⁻¹ s⁻¹
CCOC(=O)[C@H]1O[C@@H]1C(=O)N(CC(C)C)NC(=O)[C@H](CC(C)C)NC(=O)[C@H](CC(C)C)NC(=O)OCc1ccccc1 [Cbz-Leu-Leu-ALeu-(2S, 3S)-EP-COOEt, (2S,3S)-3-(N^2-(N-Benzyloxycarbonylleucylleucyl)-N^1-isobutylhydrazinocarbonyl)oxirane-2-carboxylic Acid Ethyl Ester] | – | – | 2.48 | kinact/KI (papain): 10.5 M⁻¹ s⁻¹; kinact/KI (cathepsin B): 0.98 M⁻¹ s⁻¹
CCOC(=O)[C@@H]1O[C@H]1C(=O)N(CC(C)C)NC(=O)[C@H](CC(C)C)NC(C)=O (relative stereo) [Ac-Leu-ALeu-trans-EP-COOEt, trans-3-(N^2-(N-Acetylleucyl)-N^1-isobutylhydrazinocarbonyl)oxirane-2-carboxylic Acid Ethyl Ester] | – | – | 1.48 | kinact/KI (papain): 2.09 M⁻¹ s⁻¹; kinact/KI (cathepsin B): 8 M⁻¹ s⁻¹

— US7056947B2, “Aza-peptide epoxides” (Georgia Tech Research Corp., priority 2002, dated 2006)
